In PMC7031696 (Cell chemical biology, 2019):
Read-outs that look alike come from different tables or passages of the source.

Legend:
[1] = test system: asynchronous 3D7-A10 parasite cultures; test: Standard 72-h exposure asexual blood stage susceptibility assay (IC50^72h); format: cell-based, Plasmodium falciparum; conditions: Plasmodium falciparum, 3D7, 72 h, read-out: Overall (72hr assay) Mean IC50 (IC50^72h)
[2] = test system: Plasmodium falciparum 3D7-A10 parasites; test: Stage specificity assay (8-h exposure of synchronized stages, IC50^8h); format: cell-based; conditions: for IC50: Plasmodium falciparum
[3] = test system: 3D7-MR4 trophozoite parasite-infected RBCs; test: Metabolomic profiling (hydrophilic metabolite changes, UHPLC-MS); format: cell-based, Plasmodium falciparum

With `Cl.c1ccc2c(NCCCCCCNc3c4c(nc5ccccc35)CCCC4)c3c(nc2c1)CCCC3` [MMV019555] the IC50 [1] was 33.3 nM, the “Ratio lowest IC50 8hr/IC50 72hr” value ([2]; 3D7-A10) was 2.4 and the IC50 ([2]; 3D7, read-out: Early rings Mean IC50 (IC50^8h)) was 755 nM. For the same compound, the IC50 ([2]; 3D7, read-out: Early trophozoites Mean IC50 (IC50^8h)) was 81.4 nM, the IC50 ([2]; 3D7, read-out: Late rings Mean IC50 (IC50^8h)) was 788 nM and the IC50 ([2]; 3D7, read-out: Late trophozoites Mean IC50 (IC50^8h)) was 110 nM. For the same compound, the IC50 ([2]; 3D7, read-out: Schizonts Mean IC50 (IC50^8h)) was 349 nM, the “Stage of peak activity (Figure 6)” value ([2]; period when the parasite was most susceptible (lowest IC50^8h)) was “trophozoites” and the “Peak Activity (Table S1)” value ([2]; stage(s) with the lowest IC50^8h) was “Trophs”. The “peptide levels (hemoglobin catabolism signature)” value ([3]; 10 × IC50^72h, 2.5 hr, trophozoites) was “decreased peptide levels”, the “Log2(fold changes) 3-phosphoglycerate” value ([3]; metabolite 3-phosphoglycerate, log2 fold change) was -0.7704 and the “Log2(fold changes) 4-Pyridoxic acid” value ([3]; metabolite 4-Pyridoxic acid, log2 fold change) was -0.0064. The “Log2(fold changes) 4-aminobutyrate” value ([3]; metabolite 4-aminobutyrate, log2 fold change) was -0.0746, the “Log2(fold changes) 4-phosphopantetheine” value ([3]; metabolite 4-phosphopantetheine, log2 fold change) was 0.0000 and the “Log2(fold changes) 4-phosphopantothenate” value ([3]; metabolite 4-phosphopantothenate, log2 fold change) was -0.0563. The “Log2(fold changes) 5-aminopentanoic acid” value ([3]; metabolite 5-aminopentanoic acid, log2 fold change) was 0.0000, the “Log2(fold changes) 5-methyl-THF” value ([3]; metabolite 5-methyl-THF, log2 fold change) was 0.0000 and the “Log2(fold changes) 5-phosphoribosyl-1-pyrophosphate” value ([3]; metabolite 5-phosphoribosyl-1-pyrophosphate, log2 fold change) was 0.0000. For the same compound, the “Log2(fold changes) 6-phospho-D-gluconate” value ([3]; metabolite 6-phospho-D-gluconate, log2 fold change) was -0.1925, the “Log2(fold change) HVDD” value ([3]; metabolite HVDD) was -3.3896 and the “Log2(fold change) Hydroxyisocaproic acid” value ([3]; metabolite Hydroxyisocaproic acid) was 0.0000. The “Log2(fold change) IDP” value ([3]; metabolite IDP) was 0.0000, the “Log2(fold change) IMP” value ([3]; metabolite IMP) was 0.2158 and the “Log2(fold change) Inositol” value ([3]; metabolite Inositol) was 0.0000. The “Log2(fold change) Isopentyl-PP” value ([3]; metabolite Isopentyl-PP) was 0.0000, the “Log2(fold change) L-arginino-succinate” value ([3]; metabolite L-arginino-succinate) was 2.1877 and the “Log2(fold change) LD” value ([3]; metabolite LD) was -0.1309. The “Log2(fold change) Myristoyl/tetradecanoyl-CoA” value ([3]; metabolite Myristoyl/tetradecanoyl-CoA) was 0.0000, the “Log2(fold change) N-Acetyl-L-alanine” value ([3]; metabolite N-Acetyl-L-alanine) was -0.6973 and the “Log2(fold change) N-acetyl-L-ornithine” value ([3]; metabolite N-acetyl-L-ornithine) was -2.1230. The “Log2(fold change) N-acetyl-glucosamine-1/6-phosphate” value ([3]; metabolite N-acetyl-glucosamine-1/6-phosphate) was -0.2838, the “Log2(fold change) N-acetyl-glutamate” value ([3]; metabolite N-acetyl-glutamate) was 0.3598 and the “Log2(fold change) N-acetyl-glutamine” value ([3]; metabolite N-acetyl-glutamine) was -3.0977. The “Log2(fold change) N-carbamoyl-L-aspartate” value ([3]; metabolite N-carbamoyl-L-aspartate) was -1.7500, the “Log2(fold change) NAD+” value ([3]; metabolite NAD+) was -0.0354 and the “Log2(fold change) NADH” value ([3]; metabolite NADH) was 0.0000. For the same compound, the “Log2(fold change) NADP+” value ([3]; metabolite NADP+) was 0.1571, the “Log2(fold change) NADPH” value ([3]; metabolite NADPH) was 0.0000 and the “Log2(fold change) O-acetyl-L-serine” value ([3]; metabolite O-acetyl-L-serine) was 0.0000. The “Log2(fold change) Octoluse 8/1P” value ([3]; metabolite Octoluse 8/1P) was 0.0000, the “Log2(fold change) Octoluse Bisphosphate” value ([3]; metabolite Octoluse Bisphosphate) was 0.2948 and the “Log2(fold change) PD” value ([3]; metabolite PD) was -3.7912. The “Log2(fold change) PE” value ([3]; metabolite PE) was -2.1499, the “Log2(fold change) PEE” value ([3]; metabolite PEE) was -2.7511 and the “Log2(fold change) PEEK” value ([3]; metabolite PEEK) was -0.8070. The “Log2(fold change) PVNF” value ([3]; metabolite PVNF) was -5.1804, the “Log2(fold change) Pyroglutamic acid” value ([3]; metabolite Pyroglutamic acid) was 0.0000 and the “Log2(fold change) Pyrophosphate” value ([3]; metabolite Pyrophosphate) was 0.0000. The “Log2(fold change) Ribose-5-phosphate” value ([3]; metabolite Ribose-5-phosphate) was 0.0000, the “Log2(fold change) S-adenosyl-L-homocysteine” value ([3]; metabolite S-adenosyl-L-homocysteine) was -0.6013 and the “Log2(fold change) S-adenosyl-L-methioninamine” value ([3]; metabolite S-adenosyl-L-methioninamine) was 0.0000. For the same compound, the “Log2(fold change) S-adenosyl-L-methionine” value ([3]; metabolite S-adenosyl-L-methionine) was 0.0000, the “Log2(fold change) S-methyl-5'-thioadenosine” value ([3]; metabolite S-methyl-5'-thioadenosine) was 0.0000 and the “Log2(fold change) SD” value ([3]; metabolite SD) was -1.1672. For the same compound, the “Log2(fold change) SDL” value ([3]; metabolite SDL) was -3.6117, the “Log2(fold change) SID” value ([3]; metabolite SID) was -6.9124 and the “Log2(fold change) Sedoheptulose bisphosphate” value ([3]; metabolite Sedoheptulose bisphosphate) was 0.7315. The “Log2(fold change) Thiamine pyrophosphate” value ([3]; metabolite Thiamine pyrophosphate) was 0.0000, the “Log2(fold changes) UDP-D-glucose” value ([3]; metabolite UDP-D-glucose, log2 fold change) was 0.2602 and the “Log2(fold changes) UDP-D-glucuronate” value ([3]; metabolite UDP-D-glucuronate, log2 fold change) was 0.1434. The “Log2(fold changes) UDP-N-acetyl-glucosamine” value ([3]; metabolite UDP-N-acetyl-glucosamine, log2 fold change) was 0.1146, the “Log2(fold changes) UDP” value ([3]; metabolite UDP, log2 fold change) was 0.8739 and the “Log2(fold changes) UMP” value ([3]; metabolite UMP, log2 fold change) was -0.0547. For the same compound, the “Log2(fold changes) UTP” value ([3]; metabolite UTP, log2 fold change) was -0.1611, the “Log2(fold change) hydroxyphenylpyruvate” value ([3]; metabolite hydroxyphenylpyruvate) was 0.0000 and the “Log2(fold change) hydroxyproline/Aminolevulinate” value ([3]; metabolite hydroxyproline/Aminolevulinate) was 0.0631. The “Log2(fold change) hypoxanthine” value ([3]; metabolite hypoxanthine) was 0.0000, the “Log2(fold change) indole” value ([3]; metabolite indole) was 0.0000 and the “Log2(fold change) inosine” value ([3]; metabolite inosine) was -0.4951. The “Log2(fold change) isoleucine” value ([3]; metabolite isoleucine) was 0.1119, the “Log2(fold change) lactate” value ([3]; metabolite lactate) was 0.0000 and the “Log2(fold change) leucine” value ([3]; metabolite leucine) was -0.0578. For the same compound, the “Log2(fold change) lysine” value ([3]; metabolite lysine) was 0.0000, the “Log2(fold change) malate” value ([3]; metabolite malate) was -0.8281 and the “Log2(fold change) maleic acid” value ([3]; metabolite maleic acid) was -0.8184. For the same compound, the “Log2(fold change) methionine” value ([3]; metabolite methionine) was 0.4693, the “Log2(fold change) myo-inositol” value ([3]; metabolite myo-inositol) was 0.0000 and the “Log2(fold change) nicotinamide mononucleotide” value ([3]; metabolite nicotinamide mononucleotide) was 0.0000. The “Log2(fold change) nicotinate” value ([3]; metabolite nicotinate) was -0.1129, the “Log2(fold change) ornithine” value ([3]; metabolite ornithine) was 0.0000 and the “Log2(fold change) orotate” value ([3]; metabolite orotate) was -0.7791. The “Log2(fold change) orotidine-5'-phosphate” value ([3]; metabolite orotidine-5'-phosphate) was -1.4071, the “Log2(fold change) oxaloacetate” value ([3]; metabolite oxaloacetate) was 0.0000 and the “Log2(fold change) p-aminobenzoate” value ([3]; metabolite p-aminobenzoate) was 0.0000. The “Log2(fold change) p-hydroxybenzoate” value ([3]; metabolite p-hydroxybenzoate) was 0.0000, the “Log2(fold change) pantothenate” value ([3]; metabolite pantothenate) was 0.0969 and the “Log2(fold change) phenylalanine” value ([3]; metabolite phenylalanine) was -0.1076. For the same compound, the “Log2(fold change) phenylpyruvate” value ([3]; metabolite phenylpyruvate) was 0.0000, the “Log2(fold change) phosphoenolpyruvate” value ([3]; metabolite phosphoenolpyruvate) was -0.6196 and the “Log2(fold change) prephenate” value ([3]; metabolite prephenate) was 0.0000. The “Log2(fold change) proline” value ([3]; metabolite proline) was -0.3102, the “Log2(fold change) pyridoxine” value ([3]; metabolite pyridoxine) was 0.0000 and the “Log2(fold change) pyruvate” value ([3]; metabolite pyruvate) was -0.3424. The “Log2(fold change) riboflavin” value ([3]; metabolite riboflavin) was 0.1087, the “Log2(fold change) ribose” value ([3]; metabolite ribose) was 0.0000 and the “Log2(fold change) ribose-phosphate” value ([3]; metabolite ribose-phosphate) was -0.8253. The “Log2(fold change) ribulose-5-phosphate” value ([3]; metabolite ribulose-5-phosphate) was -0.7229, the “Log2(fold change) serine” value ([3]; metabolite serine) was 0.0219 and the “Log2(fold change) sn-glycerol-3-phosphate” value ([3]; metabolite sn-glycerol-3-phosphate) was -0.8632. The “Log2(fold change) succinate/Methylmalonic acid” value ([3]; metabolite succinate/Methylmalonic acid) was 0.2169, the “Log2(fold change) succinyl-CoA/methylmalonyl-CoA” value ([3]; metabolite succinyl-CoA/methylmalonyl-CoA) was 0.0000 and the “Log2(fold change) taurine” value ([3]; metabolite taurine) was 0.0000. For the same compound, the “Log2(fold change) thiamine” value ([3]; metabolite thiamine) was -0.8248, the “Log2(fold change) threonine/homoserine” value ([3]; metabolite threonine/homoserine) was -0.3688 and the “Log2(fold change) thymidine” value ([3]; metabolite thymidine) was 0.0000. For the same compound, the “Log2(fold changes) thymine” value ([3]; metabolite thymine, log2 fold change) was 0.0000, the “Log2(fold changes) trehalose-6-Phosphate” value ([3]; metabolite trehalose-6-Phosphate, log2 fold change) was 0.0000 and the “Log2(fold changes) tryptophan” value ([3]; metabolite tryptophan, log2 fold change) was -0.0448. For the same compound, the “Log2(fold changes) tyrosine” value ([3]; metabolite tyrosine, log2 fold change) was 0.2358 and the “Log2(fold changes) uridine” value ([3]; metabolite uridine, log2 fold change) was 0.0000.
